The results in this text go back to ChEMBL document CHEMBL4819009, “Modulators of hERAP2 discovered by high-throughput screening” (Eur J Med Chem, 2021).

Test [1] addresses Endoplasmic reticulum aminopeptidase 1 (Homo sapiens) (UniProt Q9NZ08). Description: Inhibition of recombinant C-terminal 10-His-tagged human ERAP1 at 100 uM using L-AMC as substrate preincubated for 30 mins followed by substrate addition measured every 3 mins for 1 hr by flourescence assay relative to control. As to conditions: time 90.0 min.
For test [2], the target named is T1, Endoplasmic reticulum aminopeptidase 2 (Homo sapiens, UniProt Q6P179). Description: Activation of recombinant ERAP2 (unknown origin) expressed in baculovirus infected Hi-5 insect cells at 100 uM using R-AMC as substrate preincubated for 30 mins followed by substrate addition and measured every 3 mins for 1 hr by flourescence assay relative to control. The settings on record: filed as activator, time 90.0 min.

Test [3] addresses Leucyl-cystinyl aminopeptidase (IRAP), Homo sapiens (UniProt Q9UIQ6). Description: Inhibition of recombinant human IRAP expressed in HEK293 cells at 100 uM using L-AMC as substrate preincubated for 30 mins followed by substrate addition measured every 3 mins for 1 hr by flourescence assay relative to control. The settings on record: time 90.0 min.
Test [4] concerns the target T1, Endoplasmic reticulum aminopeptidase 2. Description: Inhibition of recombinant ERAP2 (unknown origin) expressed in baculovirus infected Hi-5 insect cells using R-AMC as substrate preincubated for 30 mins followed by substrate addition and measured every 3 mins for 1 hr by flourescence assay.
For test [5] the target is unchanged. Kind of test: Inhibition of human ERAP2 assessed as hydrolysis of KSIINFEKL to SIINFEKL measured after 2 hrs by LC-MS analysis.
Test [6] shares this target. Description: Inhibition of human ERAP2.
Test [7] shares this target. Description: Inhibition of recombinant ERAP2 (unknown origin) expressed in baculovirus infected insect cells at 2 mM using R-AMC as substrate preincubated for 30 mins followed by substrate addition and measured every 3 mins for 1 hr by flourescence assay relative to control. The settings on record: time 90.0 min.

Structures are written as SMILES.

Chain of Endoplasmic reticulum aminopeptidase 1 (Homo sapiens) (Q9NZ08 whole entry): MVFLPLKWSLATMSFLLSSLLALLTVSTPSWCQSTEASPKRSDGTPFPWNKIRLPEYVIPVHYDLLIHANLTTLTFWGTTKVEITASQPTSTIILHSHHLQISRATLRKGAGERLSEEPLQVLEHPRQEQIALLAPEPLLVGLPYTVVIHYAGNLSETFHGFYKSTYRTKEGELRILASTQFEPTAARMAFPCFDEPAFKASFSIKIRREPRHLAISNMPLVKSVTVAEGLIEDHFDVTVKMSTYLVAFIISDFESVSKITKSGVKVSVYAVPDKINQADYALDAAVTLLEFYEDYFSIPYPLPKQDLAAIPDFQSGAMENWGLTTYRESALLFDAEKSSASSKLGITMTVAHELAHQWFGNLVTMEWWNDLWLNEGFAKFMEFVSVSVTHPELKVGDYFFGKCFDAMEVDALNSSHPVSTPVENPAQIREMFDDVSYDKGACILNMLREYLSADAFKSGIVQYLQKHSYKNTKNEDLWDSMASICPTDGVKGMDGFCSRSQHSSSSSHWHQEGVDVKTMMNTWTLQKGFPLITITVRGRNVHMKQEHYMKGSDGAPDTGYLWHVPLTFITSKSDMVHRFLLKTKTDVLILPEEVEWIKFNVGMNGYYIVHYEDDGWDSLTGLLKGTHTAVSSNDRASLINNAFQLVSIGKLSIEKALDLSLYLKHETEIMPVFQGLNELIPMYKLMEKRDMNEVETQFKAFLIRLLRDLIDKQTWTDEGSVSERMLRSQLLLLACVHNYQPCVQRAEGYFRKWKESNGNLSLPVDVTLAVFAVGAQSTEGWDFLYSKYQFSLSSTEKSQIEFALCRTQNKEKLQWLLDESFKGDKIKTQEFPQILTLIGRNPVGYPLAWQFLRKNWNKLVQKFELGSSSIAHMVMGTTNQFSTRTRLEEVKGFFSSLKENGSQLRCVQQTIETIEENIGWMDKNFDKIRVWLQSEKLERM
Chain of Leucyl-cystinyl aminopeptidase (IRAP), Homo sapiens (Q9UIQ6 whole entry, looked up): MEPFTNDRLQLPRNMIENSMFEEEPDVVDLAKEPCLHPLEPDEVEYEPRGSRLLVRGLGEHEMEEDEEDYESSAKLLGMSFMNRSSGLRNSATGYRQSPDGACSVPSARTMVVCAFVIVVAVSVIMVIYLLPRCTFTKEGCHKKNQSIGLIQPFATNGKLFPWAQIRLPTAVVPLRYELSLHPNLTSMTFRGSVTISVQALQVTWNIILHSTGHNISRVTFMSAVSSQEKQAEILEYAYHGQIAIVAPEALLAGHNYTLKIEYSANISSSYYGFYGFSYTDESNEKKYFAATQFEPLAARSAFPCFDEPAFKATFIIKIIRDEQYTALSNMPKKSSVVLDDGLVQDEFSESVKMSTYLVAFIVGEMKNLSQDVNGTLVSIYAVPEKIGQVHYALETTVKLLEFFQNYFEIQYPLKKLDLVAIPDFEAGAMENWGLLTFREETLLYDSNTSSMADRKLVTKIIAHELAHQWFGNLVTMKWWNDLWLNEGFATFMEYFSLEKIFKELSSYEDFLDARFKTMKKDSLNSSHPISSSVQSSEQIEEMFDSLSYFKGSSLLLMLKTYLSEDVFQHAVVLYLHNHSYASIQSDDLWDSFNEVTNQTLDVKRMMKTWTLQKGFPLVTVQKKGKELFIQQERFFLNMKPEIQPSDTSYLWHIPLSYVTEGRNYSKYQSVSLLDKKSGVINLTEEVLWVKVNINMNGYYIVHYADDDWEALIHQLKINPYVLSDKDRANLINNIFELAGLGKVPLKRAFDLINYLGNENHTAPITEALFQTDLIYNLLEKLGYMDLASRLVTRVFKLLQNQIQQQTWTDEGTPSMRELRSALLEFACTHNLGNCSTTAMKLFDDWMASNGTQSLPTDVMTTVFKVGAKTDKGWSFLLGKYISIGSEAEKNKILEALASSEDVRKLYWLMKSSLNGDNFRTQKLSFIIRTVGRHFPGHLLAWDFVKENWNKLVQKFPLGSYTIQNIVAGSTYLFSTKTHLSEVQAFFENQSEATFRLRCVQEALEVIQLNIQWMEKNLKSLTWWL
T1 sequence (Q6P179 whole entry): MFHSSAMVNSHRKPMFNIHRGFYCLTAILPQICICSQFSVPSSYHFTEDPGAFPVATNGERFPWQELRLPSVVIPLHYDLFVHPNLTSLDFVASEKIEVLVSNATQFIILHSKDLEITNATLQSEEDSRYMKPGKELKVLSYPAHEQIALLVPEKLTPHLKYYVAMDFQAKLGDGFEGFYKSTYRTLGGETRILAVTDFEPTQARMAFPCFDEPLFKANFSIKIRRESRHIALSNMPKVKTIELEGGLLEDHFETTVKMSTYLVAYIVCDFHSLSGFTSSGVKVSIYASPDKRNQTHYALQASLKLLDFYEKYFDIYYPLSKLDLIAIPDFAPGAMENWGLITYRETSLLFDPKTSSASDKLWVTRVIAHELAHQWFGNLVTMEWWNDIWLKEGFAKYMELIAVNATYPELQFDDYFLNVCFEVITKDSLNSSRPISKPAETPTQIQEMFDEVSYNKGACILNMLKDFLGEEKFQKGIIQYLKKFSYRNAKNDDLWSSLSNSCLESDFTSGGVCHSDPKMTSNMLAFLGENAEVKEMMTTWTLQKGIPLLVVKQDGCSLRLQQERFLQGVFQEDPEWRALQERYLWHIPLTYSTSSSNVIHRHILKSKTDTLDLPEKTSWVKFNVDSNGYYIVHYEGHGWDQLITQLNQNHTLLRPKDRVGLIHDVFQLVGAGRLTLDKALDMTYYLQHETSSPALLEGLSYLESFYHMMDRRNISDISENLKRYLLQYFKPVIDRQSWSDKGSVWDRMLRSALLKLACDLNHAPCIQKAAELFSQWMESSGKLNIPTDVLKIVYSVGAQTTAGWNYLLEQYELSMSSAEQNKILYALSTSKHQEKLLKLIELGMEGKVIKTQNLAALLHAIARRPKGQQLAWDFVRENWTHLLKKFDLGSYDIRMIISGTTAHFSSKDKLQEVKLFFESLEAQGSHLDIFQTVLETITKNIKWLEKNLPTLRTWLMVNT

As usually defined, the inhibition is the share of the control response that was lost under treatment. `CN(C(=O)c1ccc(N(CCc2ccccc2)S(=O)(=O)c2ccc(F)cc2)cc1)[C@@H](Cc1ccccc1)C(=O)O`: the results for the inhibition in test [1] and in test [3] were < 20% and 50%, respectively. In addition, in test [2], the fold change (FC) came out at 1.84.

What is called IC50 is the midpoint of a concentration-inhibition curve. In the case of `CN(C(=O)c1ccc(N(CCN2CCCC2)S(=O)(=O)c2ccc(F)cc2)cc1)[C@@H](Cc1ccccc1)C(=O)O`, the 50% inhibitory concentration (IC50) was determined as 9.7 µM in test [4] and 98 µM in test [5]. Besides, the values for the inhibition in test [1] and in test [3] were 10% and 49%, respectively.

In test [6], `C#CC[C@H](CP(=O)(O)[C@@H](N)CCc1ccccc1)C(=O)N[C@@H](Cc1ccccc1)C(N)=O` registered an IC50 of 33 µM.

Regarding `CN(C(=O)c1ccc(N(CCc2ccccc2)S(=O)(=O)c2ccccc2)cc1)[C@@H](Cc1ccccc1)C(=O)O`, the inhibition in test [1] was < 20%; in test [3], 50%. Further, in test [5], the IC50 came to 89 µM. Besides, in test [2], the fold change (FC) amounted to 1.76.

As to `O=C(O)CN(CC(=O)N1CCN(Cc2ccccc2)C[C@@H]1Cc1c[nH]c2ccccc12)c1ccccc1`, the inhibition in test [1] is < 10%.

Consider `CC(C)C[C@@H](C(=O)O)N(C)C(=O)c1ccc(N(CCc2ccccc2)S(=O)(=O)c2ccccc2)cc1`, for which the fold change (FC) in test [2] was 1.43.

On to `CC(C)C[C@H](NC(=O)[C@@H](O)[C@H](N)Cc1ccccc1)C(=O)O`, for which the inhibition in test [7] worked out at 100%.

Regarding `CC(C)C[C@@H](C(=O)O)N(C)C(=O)c1ccc(N(CCc2ccccc2)S(=O)(=O)c2ccc(F)cc2)cc1`, in test [2], the fold change (FC) came out at 1.46.
